pEC50: −log10 of the molar value.
Target: human α7 nAChR (Homo sapiens (Human), UniProt P36544)
Assay: Automated patch-clamp electrophysiology functional assay (Assay A)
Type: cell-based
Conditions: IonFlux HT whole-cell population patch, HEK cells expressing human α7/RIC-3, 40 μM acetylcholine
Summary of the method: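 Whole-cell population patch clamp on HEK cells stably co-expressing human α7 and RIC-3, held at −60 mV, room temperature. Compounds tested at three ascending concentrations per recording with or without 40 μM acetylcholine; currents normalized to the 40 μM acetylcholine-evoked reference response to give agonist and potentiation EC50.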

human α7 nAChR, sequence (P36544 23-502): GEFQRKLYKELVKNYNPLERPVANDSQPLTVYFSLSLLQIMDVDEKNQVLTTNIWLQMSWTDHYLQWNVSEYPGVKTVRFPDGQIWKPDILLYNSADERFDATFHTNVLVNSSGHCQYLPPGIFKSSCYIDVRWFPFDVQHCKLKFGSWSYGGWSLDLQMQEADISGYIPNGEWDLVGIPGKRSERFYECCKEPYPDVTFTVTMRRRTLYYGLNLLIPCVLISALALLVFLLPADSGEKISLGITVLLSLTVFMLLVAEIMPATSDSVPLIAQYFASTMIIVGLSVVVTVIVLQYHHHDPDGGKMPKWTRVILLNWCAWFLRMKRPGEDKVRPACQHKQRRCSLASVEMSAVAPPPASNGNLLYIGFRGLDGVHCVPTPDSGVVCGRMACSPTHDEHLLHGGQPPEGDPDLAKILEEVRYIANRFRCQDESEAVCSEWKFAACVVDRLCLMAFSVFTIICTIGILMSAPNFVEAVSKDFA

| pEC50 (electrophysiology EC50 values) | pEC50 (potency class) | Compound |
| --- | --- | --- |
| 5.66 | 5.30 to 6.30 | CCOc1ccc([C@H](CO)NC(=O)C2C3COc4ccc(F)cc4C32)cn1 (stereo partly drawn) [Example A3, exo-N-[(1R)-1-(6-ethoxypyridin-3-yl)-2-hydroxyethyl]-6-fluoro-1,1a,2,7b-tetrahydrocyclopropa[c][1]benzopyran-1-carboxamide] |
|  | 5.30 to 6.30 | O=C(NCc1cc(Br)no1)C1C2Oc3ccc(F)cc3C21 (stereo not drawn) [Example C47, exo-N-[(3-bromo-1,2-oxazol-5-yl)methyl]-5-fluoro-1a,6b-dihydro-1H-cyclopropa[b][1]benzofuran-1-carboxamide] |
| 6.01 | 5.30 to 6.30 | O=C(NCc1cccs1)C1C2Oc3ccc(F)cc3C21 (stereo not drawn) [Example C17, exo-5-fluoro-N-[(thiophen-2-yl)methyl]-1a,6b-dihydro-1H-cyclopropa[b][1]benzofuran-1-carboxamide] |
| 6.32 | 6.30 to 7.00 | CCOc1ccc([C@H](COC)NC(=O)C2C3Oc4c(Cl)cccc4C32)cc1 (stereo partly drawn) [Example B7, exo-3-chloro-N-[(1R)-1-(4-ethoxyphenyl)-2-methoxyethyl]-1a,6b-dihydro-1H-cyclopropa[b][1]benzofuran-1-carboxamide] |
